PMC12735921, “Evaluation of Antiproliferative Activity and Molecular Modeling Studies of Some Novel Benzimidazolone-Bridged Hybrid Compounds” (Pharmaceuticals, 2025)
“And” between values parts separate entries of the source, which are not always exact repeats. Equal entries are not always repeated.

Assays:
Assay type in all cases: cell-based, human
A549 cells [1] = assay: MTT cell viability assay, A549
Summary of the method: (§1)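 Cells exposed to compounds at 0.5–200 µM for 48 h in DMEM with 10% FBS at 37 °C, 5% CO2; formazan dissolved in DMSO and read at 570 nm. Cytotoxicity relative to untreated control; IC50 from four-parameter logistic fit, mean of three independent measurements, triplicate samples.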

MCF-7 cells [2] = assay: MTT cell viability assay, MCF-7
Summary of the method: as §1

HEK 293 cells = assay: MTT cell viability assay, non-cancerous HEK 293; conditions: Homo sapiens, HEK293, 48 h, mean ± SD, n = 3
Summary of the method: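 Cells grown in DMEM/10% FBS were seeded at 1 × 10^5 cells/mL and exposed to compounds at 0.5–200 µM for 48 h. Formazan was dissolved in DMSO and read at 570 nm, with cytotoxicity expressed relative to untreated control (0%). IC50 came from a four-parameter logistic fit, averaged over three independent runs.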

A549 cells [3] = assay: LDH leakage assay, A549; conditions: A549, IC50 concentration of compound, 48 h; H2O2 positive control; mean ± SD, n = 3
Procedure: One hundred microliters of culture medium was transferred to a new 96-well plate. One hundred microliters of LDH reaction solution was added to each well, and absorbance was measured at 490 nm using an ELISA plate reader (BMG Labtech, Ortenberg, Germany) after 30 min.

MCF-7 cells [4] = assay: Total oxidative status (TOS), MCF-7; conditions: MCF-7, IC50 concentration of compound, 48 h; H2O2 250 µM positive control; mean ± SD, n = 3
Procedure: TOS were evaluated using a commercially available kit (Rel Assay Diagnostics®, Gaziantep, Turkey) according to the manufacturer’s instructions. […] The TOS assay quantifies oxidizing agents based on their ability to convert an iron (II) ion chelator complex to iron (III) ions. The results were calibrated against hydrogen peroxide (H2O2, 250 µM) as a positive control for 48 h and expressed as µmol H2O2 equivalents per liter. The analysis was performed in three independent biological replicates (n = 3).

A549 cells [5] = assay: Intracellular GSH/GSSG ratio, A549; conditions: A549, IC50 concentration of compound, 48 h; H2O2 positive control; mean ± SD, n = 3
Procedure: Intracellular reduced (GSH) and oxidized (GSSG) glutathione levels were measured using the GSH/GSSG Ratio Detection Assay Kit (Cayman Chemical, Ann Arbor, MI, USA, Cat. No: 703002) according to the manufacturer’s protocol. […] After treatment, cells were washed with cold PBS and lysed with MES buffer provided in the kit.
To prevent oxidation of GSH to GSSG during processing, samples were deproteinized using the supplied metaphosphoric acid solution and neutralized accordingly. Total glutathione and GSSG levels were measured separately by adding the appropriate buffers and reagents to the wells of a 96-well plate, followed by the addition of DTNB recycling reagent and glutathione reductase. Absorbance was read at 405 nm using a microplate reader (BMG Labtech, Germany). The amount of GSH was calculated by subtracting 2 × GSSG from the total glutathione, and the GSH/GSSG ratio was used to assess intracellular redox status.

IC50 (A549 cells [1]; Homo sapiens, A549, MTT, 48 h, mean ± SD, n = 3): 30.6 ± 1.76 µM
IC50 (MCF-7 cells [2]; Homo sapiens, MCF7, MTT, 48 h, mean ± SD, n = 3): 28.3 ± 1.63 µM
Compound: O=C(O)Cn1c(=O)n(CC(=O)O)c2cc(Cl)c(Cl)cc21 [Compound 6, 2,2′-(5,6-Dichloro-2-oxo-1H-benzo[d]imidazole-1,3(2H)-diyl)diacetic Acid]
A549 Selectivity Index (SI) (A549 cells [1]; SI = IC50 (HEK 293)/IC50 (A549)): 2.04
MCF-7 Selectivity Index (SI) (MCF-7 cells [2]; SI = IC50 (HEK 293)/IC50 (MCF-7)): 2.21
IC50 (HEK 293 cells): 62.7 ± 3.62 µM
LDH (A549 cells [3]): 24.5 ± 2.0 µU/mL and 24.5 ± 2.0 ^a,b µU/mL
TOS (MCF-7 cells [4]): 6.9 ± 0.5 µmol H2O2 eq/L and 6.9 ± 0.5 ^a,b µmol H2O2 eq/L
GSH/GSSG (A549 cells [5]): 11.2 ± 1.0 nmol/mg Protein and 11.2 ± 1.0 ^a,b nmol/mg Protein
